From US20190106460A1, “BINDING INHIBITORS OF THE BETA. TRANSDUCIN REPEAT-CONTAINING PROTEIN” (priority 2011, published 2019)
Where two headings read alike, the source gives them in different places. Starred links: 1 amine or outer side, 2 acyl side, 3 side chain; linkers in the order of their positions; H or OH if unused. Non-standard residues stand in square brackets, D forms with d. Residues, ends and D or L forms follow the SMILES beside them. *: point of attachment. Phe(3-Cl) = N[C@@H](Cc1cccc(Cl)c1)C(=O)O; Phe(3-F) = N[C@@H](Cc1cccc(F)c1)C(=O)O; 1Nal = N[C@@H](Cc1cccc2ccccc12)C(=O)O; X1 = CCCCOc1ccc(S(=O)(=O)*)cc1; X2 = COc1ccc(S(=O)(=O)*)cc1OC; Suc = O=C(CCC(=O)[*:2])[*:1]; Tos = Cc1ccc(S(=O)(=O)*)cc1

Legend:
βTrCP [1] = biological target: βTrCP (Homo sapiens, UniProt Q9Y297); test: Fluorescence polarisation (FP) binding assay with fluorescein-tagged IκB peptide
Target sequence in this assay (P63208 whole entry partner, one chain of several): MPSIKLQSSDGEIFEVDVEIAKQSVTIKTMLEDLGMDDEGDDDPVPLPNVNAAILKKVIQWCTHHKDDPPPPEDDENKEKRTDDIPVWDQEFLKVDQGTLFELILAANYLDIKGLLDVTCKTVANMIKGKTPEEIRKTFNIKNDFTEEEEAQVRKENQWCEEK

βTrCP [2] = biological target: T1, βTrCP (Homo sapiens, UniProt Q9Y297); test: Biotin pull down assay with biotinylated IκB peptide; type: binding; conditions: for Biotin Pulldown Assay 10 μM: 10 μM compound; for Biotin Pulldown Assay 100 μM: 100 μM compound
T1 sequence (Q9Y297 1-605): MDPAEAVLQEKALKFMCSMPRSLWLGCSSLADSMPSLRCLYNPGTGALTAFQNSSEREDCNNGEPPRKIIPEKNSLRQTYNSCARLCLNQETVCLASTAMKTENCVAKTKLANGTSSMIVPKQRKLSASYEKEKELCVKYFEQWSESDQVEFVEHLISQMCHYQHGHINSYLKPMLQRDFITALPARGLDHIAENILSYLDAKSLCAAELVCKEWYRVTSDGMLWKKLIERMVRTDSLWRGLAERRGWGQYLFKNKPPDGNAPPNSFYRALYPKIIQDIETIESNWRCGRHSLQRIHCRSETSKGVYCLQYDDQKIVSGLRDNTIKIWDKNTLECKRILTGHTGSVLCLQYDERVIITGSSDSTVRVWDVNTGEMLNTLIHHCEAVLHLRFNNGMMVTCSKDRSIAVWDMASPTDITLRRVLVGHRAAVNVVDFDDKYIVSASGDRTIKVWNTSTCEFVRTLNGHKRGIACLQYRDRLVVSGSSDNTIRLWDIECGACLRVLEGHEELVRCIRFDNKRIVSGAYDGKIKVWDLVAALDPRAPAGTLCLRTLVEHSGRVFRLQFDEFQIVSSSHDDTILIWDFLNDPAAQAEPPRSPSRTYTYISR

β-TrCP1/Skp1 = β-TrCP1/Skp1 (Homo sapiens, UniProt Q9Y297); test: βTrCP ubiquitination assay (Ub assay); type: biochemical; conditions: for Ub Assay 10 μM: 10 μM compound; for Ub Assay 100 μM: 100 μM compound
Protocol: (§1) βTrCP Ubiquitination Assay and Selectivity Assays
0.5 μM Peptide substrate (biotin)
(§2) Master mixes were prepared in a 50 mM Herpes buffer at pH 7.5, in 75 mM NaCl and 1 mM DTT without Mg or ATP and peptides were added to a final concentration of 100 μM. Reactions were incubated at room temperature for 30 minutes and then Mg/ATP was added to the mix. Reactions were further incubated for an additional 60 minutes and then stopped by adding SDS gel loading buffer and boiled for 5 minutes. Reactions were run on SDS-PAGE (10%) and transferred to nitrocellulose membranes and probed with HRP-Streptavidin.
Candidate compounds were tested in duplicate at both 10 and 100 μM against the E3 ligase cascades βTrCP(IκBα) and βTrCP(β-catenin). The E3 assays were carried out according to the component concentrations detailed in Table 9. In each case the E2 was HA,6His-UbcH3-(hu,FL), the E1 was 6His-UBE1-(hu,FL) and the ubiquitin (Sigma U6253) was biotinylated at a 5:1 ratio. Substrate phosphorylation was performed in the absence of compound; consequently any observed signal modulation should not reflect inhibition of the up-stream kinase reaction. All other steps (E1, E2 and substrate ubiquitination) were carried out in the presence of compound. The stopped reaction mix (10 μl) was added to an ECL plate loaded with anti c-Myc ( 1/500 Dilution, Millipore 05-724) and blocked with 5% BSA. Binding was allowed to proceed for 1 hour at RT before a wash step (3 40 μl PBST washes). Detection was achieved by binding SA-Ru TAG at 1 μg/ml (1 hour @ RT, 3 40 μl PBST washes) before reading on an MSD Sector Imager 6000.
Assays were performed as described above

Skp2 = Skp2 (Homo sapiens, UniProt Q13309); test: Selectivity assay vs other E3s: Skp2; type: biochemical; conditions: for inhibition at 100 µM: value in brackets, read-out: % Inhibition Skp2 @ (100 μM); for inhibition at 10 µM: read-out: % Inhibition Skp2 @ 10 μM
Protocol: as §1, §2
(§3) Candidate compounds were tested for inhibition of Fbw7 and Skp2 as described above.

FBW7/Skp1 = FBW7/Skp1 (Homo sapiens, UniProt Q969H0); test: Selectivity assay vs other E3s: Fbw7; type: biochemical; conditions: for inhibition at 100 µM: value in brackets, read-out: % Inhibition Fbw7 @ (100 μM); for inhibition at 10 µM: read-out: % Inhibition Fbw7 @ 10 μM
Protocol: as §1, §2
FBW7 selectivity assays were performed in the same manner except using FBW7/Skp1 as E3 component and cyclin E as the substrate. Blots were probed using anti-cyclin E antibody.
as §3

[3] = Table 11, with spread, read-out: FP IC50/μM
[4] = Tables 1, 3, 7, 8, 10 nM fluorescein-tagged IκB peptide, read-out: FP Assay IC50/μM

Chain of FBW7/Skp1 (Q969H0 whole entry, species assumed): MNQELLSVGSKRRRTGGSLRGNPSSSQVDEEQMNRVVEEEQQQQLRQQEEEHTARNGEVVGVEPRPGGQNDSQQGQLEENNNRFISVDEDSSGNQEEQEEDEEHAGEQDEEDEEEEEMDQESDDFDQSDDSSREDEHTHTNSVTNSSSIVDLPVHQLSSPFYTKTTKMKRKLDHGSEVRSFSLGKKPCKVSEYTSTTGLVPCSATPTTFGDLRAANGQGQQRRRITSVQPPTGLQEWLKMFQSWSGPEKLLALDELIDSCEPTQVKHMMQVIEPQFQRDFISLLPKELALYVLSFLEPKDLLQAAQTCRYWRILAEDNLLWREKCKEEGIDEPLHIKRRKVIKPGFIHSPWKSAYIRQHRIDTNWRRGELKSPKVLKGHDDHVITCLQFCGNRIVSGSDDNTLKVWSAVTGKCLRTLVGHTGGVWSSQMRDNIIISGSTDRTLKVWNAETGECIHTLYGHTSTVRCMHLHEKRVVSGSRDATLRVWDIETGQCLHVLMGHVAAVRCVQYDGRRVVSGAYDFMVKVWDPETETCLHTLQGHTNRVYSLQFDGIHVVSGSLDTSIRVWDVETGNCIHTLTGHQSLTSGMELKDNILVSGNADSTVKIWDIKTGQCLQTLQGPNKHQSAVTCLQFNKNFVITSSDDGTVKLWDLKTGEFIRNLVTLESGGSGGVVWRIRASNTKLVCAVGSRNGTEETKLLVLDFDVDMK
Chain of FBW7/Skp1 (P63208 whole entry partner, species assumed): as the sequence (P63208 whole entry partner, one chain of several) above
Chain of FBW7/Skp1 (Q13616 whole entry partner, species assumed): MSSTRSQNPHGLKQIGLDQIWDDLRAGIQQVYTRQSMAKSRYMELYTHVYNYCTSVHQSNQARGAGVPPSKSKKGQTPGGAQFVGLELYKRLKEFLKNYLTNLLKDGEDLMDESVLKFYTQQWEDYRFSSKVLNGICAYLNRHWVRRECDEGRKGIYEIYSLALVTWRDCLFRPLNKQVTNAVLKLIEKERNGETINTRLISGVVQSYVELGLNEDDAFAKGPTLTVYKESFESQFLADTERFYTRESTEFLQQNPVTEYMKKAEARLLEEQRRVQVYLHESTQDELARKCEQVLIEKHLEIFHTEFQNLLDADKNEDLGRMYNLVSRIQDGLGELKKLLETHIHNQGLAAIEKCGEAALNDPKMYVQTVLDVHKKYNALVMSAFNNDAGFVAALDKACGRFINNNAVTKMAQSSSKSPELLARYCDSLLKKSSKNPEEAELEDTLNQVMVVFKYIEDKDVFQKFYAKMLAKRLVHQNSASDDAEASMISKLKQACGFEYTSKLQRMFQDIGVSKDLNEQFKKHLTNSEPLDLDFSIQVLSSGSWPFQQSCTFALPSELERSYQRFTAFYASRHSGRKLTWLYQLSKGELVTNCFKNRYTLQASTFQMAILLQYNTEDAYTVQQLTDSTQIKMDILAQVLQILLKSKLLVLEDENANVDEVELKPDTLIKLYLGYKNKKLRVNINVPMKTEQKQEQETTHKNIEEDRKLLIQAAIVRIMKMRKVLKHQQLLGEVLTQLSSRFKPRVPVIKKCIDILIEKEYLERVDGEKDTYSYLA
Chain of FBW7/Skp1 (P62877 whole entry partner, species assumed): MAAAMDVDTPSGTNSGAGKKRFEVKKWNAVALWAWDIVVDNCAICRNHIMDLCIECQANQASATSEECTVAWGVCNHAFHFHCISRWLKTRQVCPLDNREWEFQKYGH
Chain of β-TrCP1/Skp1 (P63208 2-163 partner limits assumed, one chain of several): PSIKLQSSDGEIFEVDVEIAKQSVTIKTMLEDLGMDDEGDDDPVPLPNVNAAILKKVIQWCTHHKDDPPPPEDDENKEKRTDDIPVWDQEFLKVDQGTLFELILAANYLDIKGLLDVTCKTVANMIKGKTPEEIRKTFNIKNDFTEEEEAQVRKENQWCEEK
Chain of Skp2 (Q13309 whole entry, species assumed): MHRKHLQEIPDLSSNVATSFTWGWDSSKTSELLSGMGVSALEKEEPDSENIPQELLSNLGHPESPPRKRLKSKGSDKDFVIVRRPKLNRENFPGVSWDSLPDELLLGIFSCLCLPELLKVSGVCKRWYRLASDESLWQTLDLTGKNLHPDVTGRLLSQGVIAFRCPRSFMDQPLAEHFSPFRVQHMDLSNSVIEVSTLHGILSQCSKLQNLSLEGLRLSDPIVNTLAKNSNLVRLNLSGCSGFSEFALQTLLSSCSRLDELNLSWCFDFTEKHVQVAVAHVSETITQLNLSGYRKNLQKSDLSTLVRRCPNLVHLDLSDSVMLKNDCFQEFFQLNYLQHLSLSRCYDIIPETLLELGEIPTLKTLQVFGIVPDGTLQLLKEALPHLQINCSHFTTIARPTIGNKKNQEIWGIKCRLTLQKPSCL
Chain of Skp2 (P63208 whole entry partner, species assumed): as the sequence (P63208 whole entry partner, one chain of several) above
Chain of Skp2 (Q13616 whole entry partner, species assumed): as the sequence (Q13616 whole entry partner, species assumed) above
Chain of Skp2 (P62877 whole entry partner, species assumed): as the sequence (P62877 whole entry partner, species assumed) above

Compound | IC50 (βTrCP [1]; [3]) [µM] | IC50 (βTrCP [1]; [4]) [µM] | Biotin Pulldown Assay 10 μM (βTrCP [2]) | Biotin Pulldown Assay 100 μM (βTrCP [2]) | Ub Assay 10 μM (β-TrCP1/Skp1) | Ub Assay 100 μM (β-TrCP1/Skp1) | inhibition at 100 µM (Skp2) [%] | inhibition at 10 µM (Skp2) [%] | inhibition at 100 µM (FBW7/Skp1) [%] | inhibition at 10 µM (FBW7/Skp1) [%] | FP Assay IC50/μM (βTrCP [1]; Tables 1, 3, 7, 8, 10 nM fluorescein-tagged IκB peptide)
Cc1ccc(S(=O)(=O)N[C@H](CC(=O)O)C(=O)N[C@@H](CCC(=O)O)C(=O)NCC(=O)N[C@@H](Cc2cccc(F)c2)C(=O)N[C@@H](Cc2c[nH]c3ccccc23)C(=O)N[C@@H](CC(=O)O)C(N)=O)cc1 [UBP027, Ts-dEGF(3F)WD-NH2] (Tos-[dD]EG[Phe(3-F)]WD-NH2) | 0.034 ± 0.005 | 0.034 | s. reduces/ | inhibits | inhibits/ | inhibits | 6 | 4 | 8 | 3 | 
Cc1ccc(S(=O)(=O)N[C@H](CC(=O)O)C(=O)N[C@@H](CCC(=O)O)C(=O)NCC(=O)N[C@@H](Cc2cccc(Cl)c2)C(=O)N[C@@H](Cc2c[nH]c3ccccc23)C(=O)N[C@@H](CCC(=O)O)C(N)=O)cc1 [UBP034, Ts-dEGF(3Cl)WE-NH2] (Tos-[dD]EG[Phe(3-Cl)]WE-NH2) | 0.01 ± 0.002 |  | s. reduces/ | inhibits | inhibits/ | inhibits | 0 | 0 | 6 | 8 | 
CC(=O)N[C@H](CC(=O)O)C(=O)N[C@@H](CCC(=O)O)C(=O)NCC(=O)N[C@@H](Cc1cccc(F)c1)C(=O)N[C@@H](Cc1c[nH]c2ccccc12)C(=O)N[C@@H](CCC(=O)O)C(N)=O [UBP017, Ac-dEGF(3F)WE-NH2] (Ac-[dD]EG[Phe(3-F)]WE-NH2) | 0.102 ± 0.017 | 0.102 | reduces/ | inhibits | reduces/ | inhibits | 27 | 10 | 0 | 3 | 
CC(=O)N[C@H](CC(=O)O)C(=O)N[C@@H](CCC(=O)O)C(=O)NCC(=O)N[C@@H](Cc1cccc(F)c1)C(=O)N[C@@H](Cc1cccc2ccccc12)C(=O)N[C@@H](CCC(=O)O)C(N)=O [UBP016, Ac-dEGF(3F)1NalE-NH2] (Ac-[dD]EG[Phe(3-F)][1Nal]E-NH2) | 0.112 ± 0.017 |  | reduces/ | inhibits | reduces/ | inhibits | 7 | 0 | 8 | 3 | 
CCCCOc1ccc(S(=O)(=O)N[C@H](CC(=O)O)C(=O)N[C@@H](CCC(=O)O)C(=O)NCC(=O)N[C@@H](Cc2cccc(F)c2)C(=O)N[C@@H](Cc2c[nH]c3ccccc23)C(=O)N[C@@H](CCC(=O)O)C(N)=O)cc1 [UBP030, 4-(BuO)-PhSO2-dEGF(3F)WE-NH2] (X1-[dD]EG[Phe(3-F)]WE-NH2) | 0.056 ± 0.008 | 0.056 | reduces/ | inhibits | reduces/ | inhibits | 13 | 0 | 12 | 7 | 
COc1ccc(S(=O)(=O)N[C@H](CC(=O)O)C(=O)N[C@@H](CCC(=O)O)C(=O)NCC(=O)N[C@@H](Cc2cccc(F)c2)C(=O)N[C@@H](Cc2c[nH]c3ccccc23)C(=O)N[C@@H](CCC(=O)O)C(N)=O)cc1OC [UBP029, 3,4-(MeO)2-PhSO2-dEGF(3F)WE-NH2] (X2-[dD]EG[Phe(3-F)]WE-NH2) | 0.042 ± 0.001 |  | reduces/ | inhibits | reduces/ | inhibits | 19 | 19 | 0 | 2 | 
NC(=O)[C@H](CCC(=O)O)NC(=O)[C@H](Cc1ccccc1)NC(=O)[C@H](Cc1ccccc1)NC(=O)CNC(=O)[C@H](CCC(=O)O)NC(=O)CCC(=O)O [UBP002, Suc-EGFFE-NH2] (Suc-EGFFE-NH2) | 3.18 ± 0.357 |  | no effect/ | reduces | reduces/ | inhibits | 0 | 14 | 0 | 0 | low μM inhibitor
